Laboratory results: patent US20050064384A1, “Recruitment of mst1 or mst2 protein kinase to induce apoptosis in eukaryotic cells” (priority 2001, published 2005)
“Also recorded” adds a separate entry of the source. Peptide text beside a SMILES is read from it. * marks the point of attachment. Cbz = O=C(OCc1ccccc1)*; CH2F = FC*

Tests used:
Assay type in all cases: cell-based
NIH3T3 cells = assay: Annexin V labeling in NIH 3T3 cells (FACS); details: zVAD-FMK 42 μM added at the time of transfection; cells harvested 24 hours later; NORECAAX + wild type MST1, or myrMST1
Procedure: Annexin V labeling in NIH 3T3 cells. The assay was as described in (van Engeland et al., Cytometry, 24: 131-139 (1996)) with some modifications. NIH 3T3 cells were plated at 3-4×10^5 per well in a 6-well plate the day before transfection. Cells were transfected in duplicate with 6 μg of DNA and 10 μl of LIPOFECTAMINE™ 2000 transfection reagent (GIBCO BRL, Gaithersburg, Md.) in the presence of 10% serum, as recommended by manufacturer, and left for 19-23 hours. In some experiments, Z-Vad-FMK (Calbiochem) was added to 42 μM (final concentration) at the time of transfection. Rat annexinV, purified from liver or recombinant, labeled with Alexa 488 dye was added to the culture media to 1 mg/ml and cells were incubated 5 minutes at 37° C., followed by 25 minutes at room temperature in the dark. Media with floating cells was transferred to 5 ml centrifuge tubes on ice; the plates were washed twice with 1 ml of HBS (20 mM HEPES, pH 7.4, 150 mM NaCl, 2.5 mM CaCl2) and the washes were added to the tubes with media. Floating cells were pelleted, resuspended in 3 ml of HBS and pelleted again. Adherent cells were scraped into 1 ml HBS, pooled with floating cells from the same dish and resuspended by vortexing. […] Cells were analyzed by Coulter EPICS V XL flow cytometer; the percent of annexinV-positive cells was calculated by the cytometer software. […]

HEK293 cells = assay: Apoptosis assay in HEK293 cells (trypan blue exclusion); details: incubation with zVAD-FMK, data not shown
Procedure: Transient transfections were performed using LIPOFECTAMINE™ transfection reagent (Gibco BRL, Gaithersburg, Md.) according to the manufacturer's instructions. […] Each well was transfected with a total of 0.5 μg DNA and 3.5 μl LIPOFECTAMINE™ transfection reagent.

Jurkat cells = assay: Jurkat cell survival by flow cytometry (GFP positive live cells); details: incubation with zVAD-FMK, data not shown
Procedure: The Jurkat/T antigen cell line was cultured in complete IMDM medium supplemented with 10% FCS, 2 mM glutamine and gentamycin (50 μg/ml) in a humidified incubator with 5% CO2 in air at 37° C. The cells were kept at a density of 0.5-1×10^6/ml. Aliquots containing 3×10^6 Jurkat cells were electorporated at 250 volts and 960 μF with mixtures of plasmids as indicated in the Figures together with 1 μg of cDNA encoding GFP. Twenty-four hours post transfection, cell survival was analyzed by flow cytometry using a previously optimized program to measure percentage of live cells that are GFP positive present in forward scatter/side scatter gate in each experimental condition (Vermes et al., J. Immunol. Meth., 243: 167-190 (2000)). The vital GFP positive cells were selected on the basis of unchanged scatter signals when compared to untransfected cells and the apoptotic cell population with decreased FS and increased SS was excluded from the analysis. The data was expressed as “percent cells surviving” with vector controls set to 100%.

In the case of `COC(=O)C[C@H](NC(=O)[C@H](C)NC(=O)[C@@H](NC(=O)OCc1ccccc1)C(C)C)C(=O)CF` [zVAD-FMK] (Cbz-Val-Ala-Asp(OMe)-CH2F), the “suppression of NORECAAX and MST1-induced annexin V binding (staining)” value (NIH3T3 cells) is reported as “suppresses; also recorded: fully suppressed”, the “suppression of killing caused by low doses of NORECAAX with MST1” value (HEK293 cells) is reported as “suppressed” and the “suppression of killing caused by low doses of NORECAAX with MST1” value (Jurkat cells) is reported as “suppressed”.
